Data on three compounds can be found in US20020123480A1, “Methods and compositions utilizing 2'-5' oligoadenylates in the treatment of disorders of cell proliferation” (priority 2000, published 2002).

The subject of one experiment is SiHa (HPV-16-positive). The experiment can be described thus: Growth of HPV-positive SiHa cells, Coulter Counter cell count. The settings on record: for IC50: Homo sapiens. The format is cell-based, human.
The test system of the next experiment is HeLa (HPV-18-positive). In words: Growth of HPV-positive HeLa cells, Coulter Counter cell count. Conditions: for IC50: Homo sapiens. Format: cell-based, human.
The subject of experiment [1] is human papillomavirus (HPV)-positive cell lines. Conditions: literature (Andrei 1998; Johnson 1999); cited from earlier work.
For another experiment, the system named is CK-1 (HPV-33-positive). In words: cells. Format: cell-based. The settings on record: for IC50: Homo sapiens, read-out: IC50 (concentration required to reduce cell growth by 50%).
The test system of experiment [2] is primary human cervical keratinocytes (PHK). The experiment can be described thus: Growth of control primary human cervical keratinocytes, Coulter Counter cell count. Format: cell-based. Conditions: for IC50: Homo sapiens, Keratinocyte.
The subject of a further experiment is EiL8 (HPV-16-positive). The experiment can be described thus: Growth of HPV-positive EiL8 cells, Coulter Counter cell count. Format: cell-based, human. The settings on record: for IC50: Homo sapiens, read-out: IC50 (concentration required to reduce cell growth by 50%). Here is the method: (§1) The cells used in the first study included CK-1 (HPV-33-positive), EiL8 (HPV-16-positive), SiHa (HPV-16-positive) and HeLa (HPV-18-positive) and control primary human cervical keratinocytes (PHK). The cells were cultured in growth medium at 37° C., in 5% CO2. For these experiments, the cells were seeded in 96-well microtiter plates and after 24 hours of growth, serial dilutions of the test compounds were added. The cells were not fed after addition of the compounds. After three, five, seven and ten days, the cells were harvested by trypsinization and counted with a Coulter Counter. Duplicate wells were analyzed for each dilution and the results averaged. The number of cells recovered at each dilution was compared to the number of cells in untreated control wells and the concentration of test compound required to reduce cell growth by 50 percent (IC50) was determined.

Experiment [3] concerns Daudi cells, an Epstein-Barr Virus (EBV)-positive Burkitt's lymphoma tumor cell line. The experiment can be described thus: Growth of Daudi cells, neutral red uptake assay. The format is cell-based, human. Here is the method: as §1
(§2) The human foreskin fibroblast (HFF) cells were cultured in growth medium as described above, but assayed by neutral red uptake and counting of cells. The human embryonic lung fibroblast (HEL) cells were cultured in growth medium and assayed as described above by counting with a Coulter Counter. Daudi cells, an Epstein-Barr Virus (EBV)-positive Burkitt's lymphoma tumor cell line, were cultured in growth medium as described above and assayed by the neutral red uptake assay. […]

Experiment [4] deals with human foreskin fibroblast (HFF) cells. The experiment can be described thus: Growth of human foreskin fibroblasts, neutral red uptake and counting of cells. The format is cell-based. The procedure: as §1, §2
The subject of experiment [5] is human papillomavirus (HPV)-positive cell lines. In words: Growth of human papillomavirus (HPV)-positive cell lines in presence of test compounds. The format is cell-based. The procedure: See […] et at., Oncol Res. 10, 523-31 (1998) and J. A. Johnson et al., Antimicrob. Agents Chemother. 43, 1198-205 (1999). […] For these experiments, the cells were seeded in 96-well microtiter plates and after 24 hours of growth, serial dilutions of the test compounds were added. The cells were not fed after addition of the compounds. After three, five, seven and ten days, the cells were harvested by trypsinization and counted with a Coulter Counter. Duplicate wells were analyzed for each dilution and the results averaged.

Setting [6] is: 72 h, Day 3, read-out: IC50 (concentration required to reduce cell growth by 50%).
[7] abbreviates: 120 h, Day 5, read-out: IC50 (concentration required to reduce cell growth by 50%).
The mark [8] stands for this setting: 168 h, Day 7, read-out: IC50 (concentration required to reduce cell growth by 50%).
Setting [9] is: 240 h, Day 10, read-out: IC50 (concentration required to reduce cell growth by 50%).

In brackets after ≈: the same amount, converted by molar mass. Like-named read-outs stand apart in the source and are kept apart here.

As for `Nc1ccn(C[C@@H](CO)OCP(=O)(O)O)c(=O)n1` [HPMPC, 3-hydroxy-2-phosphonylmethoxy-propyl cytosine, reference compound], the IC50 in the experiment on SiHa (HPV-16-positive) (setting [6]) turned out to be 179 µg/mL (≈ 641 µM); with SiHa (HPV-16-positive) (setting [7]), 8.6 µg/mL (≈ 30.8 µM); with SiHa (HPV-16-positive) (setting [8]), 4.7 µg/mL (≈ 16.8 µM); with SiHa (HPV-16-positive) (setting [9]), 4 µg/mL (≈ 14.3 µM); in the experiment on HeLa (HPV-18-positive) (setting [6]), 37 µg/mL (≈ 133 µM); with HeLa (HPV-18-positive) (setting [7]), 5.6 µg/mL (≈ 20.1 µM). Moreover, the IC50 in the experiment on HeLa (HPV-18-positive) (setting [8]) was found to be 3.9 µg/mL (≈ 14 µM); in the experiment with HeLa (HPV-18-positive) (setting [9]), 4.7 µg/mL (≈ 16.8 µM); in the experiment with CK-1 (HPV-33-positive) (CK1, 72 h, CK-1, Day 3), 32 µg/mL (≈ 115 µM); in the experiment with CK-1 (HPV-33-positive) (CK1, 120 h, CK-1, Day 5), 1.1 µg/mL (≈ 3.94 µM); in the experiment with CK-1 (HPV-33-positive) (CK1, 168 h, CK-1, Day 7) it was 0.5 µg/mL (≈ 1.79 µM); with CK-1 (HPV-33-positive) (CK1, 240 h, CK-1, Day 10) it was 1.2 µg/mL (≈ 4.3 µM). The IC50 in [2] (setting [6]) was 9.9 µg/mL (≈ 35.5 µM); in [2] (setting [7]), 7 µg/mL (≈ 25.1 µM); in experiment [2] (setting [8]) it was 6.4 µg/mL (≈ 22.9 µM); in experiment [2] (setting [9]), 3.7 µg/mL (≈ 13.3 µM); in the experiment on EiL8 (HPV-16-positive) (72 h, EiL8, Day 3), 39 µg/mL (≈ 140 µM); in the experiment with EiL8 (HPV-16-positive) (120 h, EiL8, Day 5), 7.9 µg/mL (≈ 28.3 µM). For the same compound, the IC50 in the experiment with EiL8 (HPV-16-positive) (168 h, EiL8, Day 7) was 4.2 µg/mL (≈ 15 µM); in the experiment on EiL8 (HPV-16-positive) (240 h, EiL8, Day 10) it was 3.5 µg/mL (≈ 12.5 µM). Moreover, in [1], the “inhibition of proliferation of HPV-transformed cells (in words)” value is on record as “inhibit the proliferation”.
For “2′,3′-cyclophosphateadenylyl(2′,5′)adenylyl-(2′,5′)adenosine [Cmpd. I]”, the “IC50 (concentration required to reduce cell growth by 50%)” value with SiHa (HPV-16-positive) (Day 3) was 150 µg/mL; with SiHa (HPV-16-positive) (Day 5) it was 108 µg/mL; with SiHa (HPV-16-positive) (Day 7) it was 141 µg/mL; in the experiment with SiHa (HPV-16-positive) (Day 10), 193 µg/mL; in the experiment with HeLa (HPV-18-positive) (Day 3), 66 µg/mL; in the experiment on HeLa (HPV-18-positive) (Day 5) it was 62 µg/mL. In addition, the “IC50 (concentration required to reduce cell growth by 50%)” value with HeLa (HPV-18-positive) (Day 7) amounted to 90 µg/mL; in the experiment on HeLa (HPV-18-positive) (Day 10) it was 160 µg/mL; in the experiment with CK-1 (HPV-33-positive) (CK-1, Day 3) it was 100 µg/mL; in the experiment with CK-1 (HPV-33-positive) (CK-1, Day 5) it was 46 µg/mL; with CK-1 (HPV-33-positive) (CK-1, Day 7) it was 104 µg/mL; in the experiment on CK-1 (HPV-33-positive) (CK-1, Day 10) it was 303 µg/mL. Also, the “IC50 (concentration required to reduce cell growth by 50%)” value in [2] (Day 3) was determined as 110 µg/mL; in experiment [2] (Day 5), 168 µg/mL; in [2] (Day 7), 262 µg/mL; in [2] (Day 10), 280 µg/mL; in the experiment on EiL8 (HPV-16-positive) (EiL8, Day 3), 63 µg/mL; in the experiment with EiL8 (HPV-16-positive) (EiL8, Day 5), 68 µg/mL. In addition, the “IC50 (concentration required to reduce cell growth by 50%)” value is 103 µg/mL in the experiment on EiL8 (HPV-16-positive) (EiL8, Day 7) and 180 µg/mL in the experiment with EiL8 (HPV-16-positive) (EiL8, Day 10). The “inhibition of growth (in words)” value in experiment [3] and in [4] was “inhibit the growth” in each case. Further, the “growth inhibition / anti-proliferative activity (in words)” value in experiment [5] is “anti-proliferative activity”.
Take `Nc1nc2c(ncn2COCCO)c(=O)[nH]1` [acyclovir, reference compound]: the “growth inhibition / anti-proliferative activity (in words)” value in experiment [5] is listed as “With the exception of acyclovir, growth inhibition was observed”.
